Laboratory results: patent US7261906B2, “Anti-cancer therapy agent of arsenic hexoxide (As4O6) of a natural chemical substance and its pharmaceutical composition” (priority 1998, dated 2007)

Assay: Acute toxicity, single oral administration
Format: in vivo, Rats (Sprague Dawley strain)
Conditions: for Mortality, Days after treatment 1 / Mortality, Days after treatment 2 / Mortality, Days after treatment 3 / Mortality, Days after treatment 4 / Mortality, Days after treatment 5 / Mortality, Days after treatment 6 / Mortality, Days after treatment 7 / Mortality, Days after treatment 8 / Mortality, Days after treatment 9 / Mortality, Days after treatment 10 / Mortality, Days after treatment 11 / Mortality, Days after treatment 12 / Mortality, Days after treatment 13 / Mortality, Days after treatment 14 / Mortality, Hours after treatment 1 / Mortality, Hours after treatment 2 / Mortality, Hours after treatment 3 / Mortality, Hours after treatment 4 / Mortality, Hours after treatment 5 / Mortality, Hours after treatment 6 / Final mortality / Final mortality (dead/total): male
Experimental: The acute toxicity of oral administration of HD-2 was evaluated according to toxicity assessment criteria described in Article 96-8 of Notice on Food and Drug Safety (Apr. 16, 1994). Rats (Sprague Dawley strain) were used for animal experiments. Dosage of a single, oral administration ranged from 0.4 to 1.25 g/kg body weight in male rats and 0.4 to […] body weight in female rats. General conditions of the animals, toxic symptoms, and mortality were measured every hour for the initial 6 hours following the single administration and once a day afterwards for 14 days. Body weights were measured before starting the study, 7 days after the administration, and at autopsy. Expired rats were studied to find the cause of death at autopsy. […] Some rats manifesting these clinical symptoms expired, but others recovered to normal condition within 2 to 3 days of clinical symptoms.

## O1[As]2O[As]3O[As]1O[As](O2)O3 [HD-2, arsenic hexoxide (As4O6)]
0.4 g/kg B.W. oral
  Mortality, Days after treatment 1: 0
  Mortality, Days after treatment 2: 0
  Mortality, Days after treatment 3: 0
  Mortality, Days after treatment 4: 0
  Mortality, Days after treatment 5: 0
  Mortality, Days after treatment 6: 0
  Mortality, Days after treatment 7: 0
  Mortality, Days after treatment 8: 0
  Mortality, Days after treatment 9: 0
  Mortality, Days after treatment 10: 0
  Mortality, Days after treatment 11: 0
  Mortality, Days after treatment 12: 0
  Mortality, Days after treatment 13: 0
  Mortality, Days after treatment 14: 0
  Mortality, Hours after treatment 1: 0
  Mortality, Hours after treatment 2: 0
  Mortality, Hours after treatment 3: 0
  Mortality, Hours after treatment 4: 0
  Mortality, Hours after treatment 5: 0
  Mortality, Hours after treatment 6: 0
0.4 g/kg B.W. oral, 14 days
  Final mortality: 0%
  Final mortality (dead/total): 0/5
0.6 g/kg B.W. oral
  Mortality, Days after treatment 1: 0
  Mortality, Days after treatment 2: 0
  Mortality, Days after treatment 3: 0
  Mortality, Days after treatment 4: 0
  Mortality, Days after treatment 5: 0
  Mortality, Days after treatment 6: 0
  Mortality, Days after treatment 7: 0
  Mortality, Days after treatment 8: 0
  Mortality, Days after treatment 9: 0
  Mortality, Days after treatment 10: 0
  Mortality, Days after treatment 11: 0
  Mortality, Days after treatment 12: 0
  Mortality, Days after treatment 13: 0
  Mortality, Days after treatment 14: 0
  Mortality, Hours after treatment 1: 0
  Mortality, Hours after treatment 2: 0
  Mortality, Hours after treatment 3: 0
  Mortality, Hours after treatment 4: 0
  Mortality, Hours after treatment 5: 0
  Mortality, Hours after treatment 6: 0
0.6 g/kg B.W. oral, 14 days
  Final mortality: 0%
  Final mortality (dead/total): 0/5
0.8 g/kg B.W. oral
  Mortality, Days after treatment 1: 1
  Mortality, Days after treatment 2: 1
  Mortality, Days after treatment 3: 0
  Mortality, Days after treatment 4: 0
  Mortality, Days after treatment 5: 0
  Mortality, Days after treatment 6: 0
  Mortality, Days after treatment 7: 0
  Mortality, Days after treatment 8: 0
  Mortality, Days after treatment 9: 0
  Mortality, Days after treatment 10: 0
  Mortality, Days after treatment 11: 0
  Mortality, Days after treatment 12: 0
  Mortality, Days after treatment 13: 0
  Mortality, Days after treatment 14: 0
  Mortality, Hours after treatment 1: 0
  Mortality, Hours after treatment 2: 0
  Mortality, Hours after treatment 3: 0
  Mortality, Hours after treatment 4: 0
  Mortality, Hours after treatment 5: 0
  Mortality, Hours after treatment 6: 0
0.8 g/kg B.W. oral, 14 days
  Final mortality: 10%
  Final mortality (dead/total): 2/5
0.85 g/kg B.W. oral
  Mortality, Days after treatment 1: 2
  Mortality, Days after treatment 2: 1
  Mortality, Days after treatment 3: 0
  Mortality, Days after treatment 4: 0
  Mortality, Days after treatment 5: 0
  Mortality, Days after treatment 6: 0
  Mortality, Days after treatment 7: 0
  Mortality, Days after treatment 8: 0
  Mortality, Days after treatment 9: 0
  Mortality, Days after treatment 10: 0
  Mortality, Days after treatment 11: 0
  Mortality, Days after treatment 12: 0
  Mortality, Days after treatment 13: 0
  Mortality, Days after treatment 14: 0
  Mortality, Hours after treatment 1: 0
  Mortality, Hours after treatment 2: 0
  Mortality, Hours after treatment 3: 0
  Mortality, Hours after treatment 4: 0
  Mortality, Hours after treatment 5: 0
  Mortality, Hours after treatment 6: 0
0.85 g/kg B.W. oral, 14 days
  Final mortality: 60%
  Final mortality (dead/total): 3/5
1.25 g/kg B.W. oral
  Mortality, Days after treatment 1: 3
  Mortality, Days after treatment 2: 1
  Mortality, Days after treatment 3: 0
  Mortality, Days after treatment 4: 0
  Mortality, Days after treatment 5: 0
  Mortality, Days after treatment 6: 0
  Mortality, Days after treatment 7: 0
  Mortality, Days after treatment 8: 0
  Mortality, Days after treatment 9: 0
  Mortality, Days after treatment 10: 0
  Mortality, Days after treatment 11: 0
  Mortality, Days after treatment 12: 0
  Mortality, Days after treatment 13: 0
  Mortality, Days after treatment 14: 0
  Mortality, Hours after treatment 1: 0
  Mortality, Hours after treatment 2: 0
  Mortality, Hours after treatment 3: 0
  Mortality, Hours after treatment 4: 0
  Mortality, Hours after treatment 5: 0
  Mortality, Hours after treatment 6: 0
1.25 g/kg B.W. oral, 14 days
  Final mortality: 100%
  Final mortality (dead/total): 5/5
rats, single administration of 500 mg/kg body weight per day
  side effect: did not have any side effect
Single oral administration
  Autopsy findings of rats expired during the study period: expanded stomach and engorged liver
Single oral administration, 14 days
  Autopsy findings of rats killed at the end of the study: Significant findings related to HD-2 administration were not observed
Within 3 days of single oral administration
  Clinical symptoms: dose-dependent depression and dyspnea
